Active and inactive are the calls of the source. The rule behind the calls is not given here.
Test system: CCRIS mutagenicity, Ames/micronucleus/aberration tests
Test: CCRIS mutagenicity studies
Conditions: Test System: AMES SALMONELLA TYPHIMURIUM, Method: STANDARD PLATE
[1] = Strain/Indicator: TA98, Metabolic Activation: NONE
[2] = Strain/Indicator: TA100, Metabolic Activation: NONE
[3] = Strain/Indicator: TA100, Metabolic Activation: S-9
[4] = Strain/Indicator: TA1535, Metabolic Activation: NONE
[5] = Strain/Indicator: TA1537, Metabolic Activation: NONE
[6] = Strain/Indicator: TA1538, Metabolic Activation: NONE

`CCSCCSP(=O)(OC)OC` was tested, and the mutagenic call (Strain/Indicator: TA97A, Metabolic Activation: NONE) was “inactive; negative”, the mutagenic call (Strain/Indicator: TA97A, Metabolic Activation: PLANT, HOMOGENATE, S-14) was “inactive; negative” and the mutagenic call (Strain/Indicator: TA97A, Metabolic Activation: S-9) was “inactive; negative”. The mutagenic call [1] was “inactive; negative”, the mutagenic call (Strain/Indicator: TA98, Metabolic Activation: PLANT, HOMOGENATE, S-14) was “inactive; negative” and the mutagenic call (Strain/Indicator: TA98, Metabolic Activation: RAT, LIVER, S-9) was “inactive; negative”. The mutagenic call (Strain/Indicator: TA98, Metabolic Activation: S-9) was “inactive; negative”, the mutagenic call (Strain/Indicator: TA98, Metabolic Activation: WHEAT SEEDLING, S-14) was “inactive; negative” and the mutagenic call [2] was “inactive; negative”. The mutagenic call (Strain/Indicator: TA100, Metabolic Activation: PLANT, HOMOGENATE, S-14) was “inactive; negative”, the mutagenic call [3] was “inactive; negative” and the mutagenic call (Strain/Indicator: TA102, Metabolic Activation: NONE) was “inactive; negative”. For the same compound, the mutagenic call (Strain/Indicator: TA102, Metabolic Activation: RAT, LIVER, S-9) was “inactive; negative”, the mutagenic call (Strain/Indicator: TA102, Metabolic Activation: WHEAT SEEDLING, S-14) was “inactive; negative” and the mutagenic call [4] was “inactive; negative”. The mutagenic call (Strain/Indicator: TA1535, Metabolic Activation: PLANT, HOMOGENATE, S-14) was “inactive; negative”, the mutagenic call (Strain/Indicator: TA1535, Metabolic Activation: RAT, LIVER, S-9) was “inactive; negative” and the mutagenic call (Strain/Indicator: TA1535, Metabolic Activation: S-9) was “inactive; negative”. The mutagenic call (Strain/Indicator: TA1535, Metabolic Activation: WHEAT SEEDLING, S-14) was “inactive; negative”.
With `Nc1c(C(=O)O)cc([N+](=O)[O-])c2c1C(=O)c1ccccc1C2=O` the mutagenic call [1] was “active; positive”, the mutagenic call (Strain/Indicator: TA98, Metabolic Activation: RAT, LIVER, S-9, AROCLOR 1254) was “active; positive” and the mutagenic call [2] was “active; positive”. The mutagenic call (Strain/Indicator: TA100, Metabolic Activation: RAT, LIVER, S-9, AROCLOR 1254) was “active; positive”, the mutagenic call [4] was “inactive; negative” and the mutagenic call [5] was “active; positive”. The mutagenic call (Strain/Indicator: TA1537, Metabolic Activation: RAT, LIVER, S-9, AROCLOR 1254) was “active; positive”, the mutagenic call [6] was “active; positive” and the mutagenic call (Strain/Indicator: TA1538, Metabolic Activation: RAT, LIVER, S-9, AROCLOR 1254) was “active; positive”. For the same compound, the mutagenic call (Strain/Indicator: TA1978, Metabolic Activation: NONE) was “active; positive”.
In the case of `C[n+]1ccn(CCC[n+]2ccc(C(N)=O)cc2)c1/C=N/O`, the mutagenic call (Strain/Indicator: TA97, Metabolic Activation: NONE) was “inactive; negative”, the mutagenic call (Strain/Indicator: TA97, Metabolic Activation: S-9) was “inactive; negative” and the mutagenic call [2] was “inactive; negative”. For the same compound, the mutagenic call [3] was “inactive; negative”, the mutagenic call (Strain/Indicator: TA104, Metabolic Activation: NONE) was “inactive; negative” and the mutagenic call (Strain/Indicator: TA104, Metabolic Activation: S-9) was “inactive; negative”. For the same compound, the mutagenic call [5] was “inactive; negative”, the mutagenic call (Strain/Indicator: TA1537, Metabolic Activation: S-9) was “inactive; negative” and the mutagenic call [6] was “inactive; negative”. The mutagenic call (Strain/Indicator: TA1538, Metabolic Activation: S-9) was “inactive; negative”.
